Data on 22 molecules can be found in US20220313701A1, “MODULATORS OF TREX1” (Constellation Pharmaceuticals, Inc., priority 2019, published 2022).

SMILES strings stand for the structures. Where only a bound is given, the exact number is not on record here.

One experiment has as its target T1, full length human TREX1 (Homo sapiens, UniProt Q9NSU2).
T1 construct: N-terminally His-Tev tagged full length human TREX1; His-Tev (His tag with TEV site) (N); made in house; host or cells: E. coli
T1 sequence (Q9NSU2 1-314): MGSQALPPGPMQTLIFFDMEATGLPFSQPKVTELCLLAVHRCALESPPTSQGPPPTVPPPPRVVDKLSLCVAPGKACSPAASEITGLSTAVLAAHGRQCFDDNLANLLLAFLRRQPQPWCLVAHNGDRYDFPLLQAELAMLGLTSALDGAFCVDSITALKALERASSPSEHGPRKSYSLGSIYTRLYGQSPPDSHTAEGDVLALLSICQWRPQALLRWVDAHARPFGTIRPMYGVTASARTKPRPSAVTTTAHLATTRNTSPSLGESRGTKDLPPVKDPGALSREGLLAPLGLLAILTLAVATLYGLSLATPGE
The experiment is described as follows: TREX1 Biochemical Assay (fluorescence assay, degradation of dsDNA substrate). Conditions: 150 pM TREX1, 60 nM dsDNA substrate, 25 minutes at room temperature. On the procedure:
Degradation of the dsDNA liberates free fluorophore to produce a fluorescent signal. Specifically, 7.5 μL of N-terminally His-Tev tagged full length human TREX1 (expressed in E. coli and purified in house) in reaction buffer (50 mM Tris (pH 7.4), 150 mM NaCl, 2 mM DTT, 0.1 mg/mL BSA, 0.01% (v/v) Tween-20 and either 100 mM MgCl2) was added to a 384-well Black ProxiPlate Plus (Perkin Elmer) which already contained compound (150 nL) at varying concentrations as a 10 point dose-response in DMSO. To this was added 7.5 μL of dsDNA substrate (Strand A: 5′ TEX615/GCT AGG CAG 3′; Strand B: 5′ CTG CCT AGC/IAbRQSp (Integrated DNA Technologies)) in reaction buffer. Final concentrations were 150 pM TREX1, 60 nM dsDNA substrate in reaction buffer with 1.0% DMSO (v/v). After 25 minutes at room temperature, reactions were quenched by the addition of 5 μL of stop buffer (same as reaction buffer plus 200 mM EDTA). Final concentrations in the quenched reaction were 112.5 pM TREX1, 45 nM DNA and 50 mM EDTA in a volume of 20 μL. After a 5-minute incubation at room temperature, plates were read in a laser sourced Envision (Perkin-Elmer), measuring fluorescence at 615 nm following excitation w/570 nm light. IC50 values were calculated by comparing the measured fluorescence at 615 nm ratio relative to control wells pre-quenched w/stop buffer (100% inhibition) and no inhibitor (0% inhibition) controls as using non-linear least square four parameter fits and either Genedata or GraphPad Prism (GraphPad Software, Inc.).

The target of experiment [1] is T2, human TREX2 (residues M44-A279) (Homo sapiens, UniProt Q9BQ50).
T2 construct: human TREX2 (residues M44-A279, expressed in E. coli); His-Tev (His tag with TEV site) (N); made in house; host or cells: E. coli
T2 sequence (Q9BQ50 44-279 isoform Q9BQ50-1): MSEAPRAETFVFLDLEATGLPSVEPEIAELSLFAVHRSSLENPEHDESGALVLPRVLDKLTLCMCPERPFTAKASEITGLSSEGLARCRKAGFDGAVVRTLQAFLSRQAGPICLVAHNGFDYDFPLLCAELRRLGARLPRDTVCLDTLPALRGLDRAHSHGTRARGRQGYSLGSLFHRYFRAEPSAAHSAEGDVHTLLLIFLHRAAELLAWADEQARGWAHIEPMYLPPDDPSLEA
In words: TREX2 Biochemical Assay (fluorescence assay, degradation of dsDNA substrate). The settings on record: 2.5 nM TREX2, 60 nM dsDNA substrate, 25 minutes at room temperature. On the procedure: Degradation of the dsDNA liberates free fluorophore to produce a fluorescent signal. Specifically, 7.5 μL of N-terminally His-Tev tagged human TREX2 (residues M44-A279, expressed in E. coli and purified in house) in reaction buffer (50 mM Tris (pH 7.4), 150 mM NaCl, 2 mM DTT, 0.1 mg/mL BSA, 0.01% (v/v) Tween-20 and 100 mM MgCl2) was added to a 384-well Black ProxiPlate Plus (Perkin Elmer) which already contained compound (150 nL) at varying concentrations as a 10 point dose-response in DMSO. To this was added 7.5 μL of dsDNA substrate (Strand A: 5′ TEX615/GCT AGG CAG 3′; Strand B: 5′ CTG CCT AGC/IAbRQSp (IDT)) in reaction buffer. Final concentrations were 2.5 nM TREX2, 60 nM dsDNA substrate in reaction buffer with 1.0% DMSO (v/v). After 25 minutes at room temperature, reactions were quenched by the addition of 5 μL of stop buffer (same as reaction buffer plus 200 mM EDTA). Final concentrations in the quenched reaction mixture were […] TREX2, 45 nM DNA and 50 mM EDTA in a volume of 20 μL. After a 5-minute incubation at room temperature, plates were read in a laser sourced Envision (Perkin-Elmer), measuring fluorescence at 615 nm following excitation w/570 nm light. IC50 values were calculated by comparing the measured fluorescence at 615 nm ratio relative to control wells pre-quenched w/stop buffer (100% inhibition) and no inhibitor (0% inhibition) controls as using non-linear least square four parameter fits and either Genedata or GraphPad Prism (GraphPad Software, Inc.).

With `Cn1nc(C(F)(F)F)cc1-c1cncc(N2CCC(O)(c3ccc(F)c(F)c3)CC2)n1` [Example 50, 4-(3,4-difluorophenyl)-1-(6-(1-methyl-3-(trifluoromethyl)-1H-pyrazol-5-yl)pyrazin-2-yl)piperidin-4-ol], the results for the IC50 (on full length human TREX1; in experiment [1]) were over 10000 nM and over 100 µM, respectively.
`Cn1cc(-c2cncc(N3CCC(O)(c4ccc(F)c(F)c4)CC3)n2)cn1` [Example 4, 4-(3,4-difluorophenyl)-1-(6-(1-methyl-1H-pyrazol-4-yl)pyrazin-2-yl)piperidin-4-ol]: the IC50 is 100 to 1000 nM against full length human TREX1 and 10 to 100 µM in experiment [1].
`Cc1nn(C)cc1-c1cc(CO)cc(N2CCC(O)(c3ccc(F)c(F)c3)CC2)n1` [Example 44, 4-(3,4-difluorophenyl)-1-(6-(1,3-dimethyl-1H-pyrazol-4-yl)-4-(hydroxymethyl)pyridin-2-yl)piperidin-4-ol]: the figures for the IC50 (at full length human TREX1; in experiment [1]) were 100 to 1000 nM and 10 to 100 µM, respectively.
As for `Cn1cc(-c2cncc(N3CCC(O)(Cc4ccccc4)CC3)n2)cn1` [Example 5, 4-benzyl-1-(6-(1-methyl-1H-pyrazol-4-yl)pyrazin-2-yl)piperidin-4-ol], the values for the IC50 (on full length human TREX1; in experiment [1]) were over 10000 nM and over 100 µM, respectively.
As to `OC1(c2ccc(F)cc2)CCN(c2cnc3ccccc3n2)CC1` [Example 82, 4-(4-fluorophenyl)-1-(quinoxalin-2-yl)piperidin-4-ol], the half-maximal inhibitory concentration (IC50) at full length human TREX1 is 1000 to 10000 nM; in experiment [1], over 100 µM.
Regarding `Cc1nn(C)cc1-c1c[nH]c(=O)c(N2CCC(O)(c3ccc(F)c(F)c3)CC2)n1` [Example 99, 3-(4-(3,4-difluorophenyl)-4-hydroxypiperidin-1-yl)-5-(1,3-dimethyl-1H-pyrazol-4-yl)pyrazin-2(1H)-one], the values for the IC50 (on full length human TREX1; in experiment [1]) were 100 to 1000 nM and over 100 µM, respectively.
As for `OC1(c2ccc(F)cc2)CCN(c2cncc(-c3cnn(C(F)F)c3)n2)CC1` [Example 13, 1-(6-(1-(difluoromethyl)-1H-pyrazol-4-yl)pyrazin-2-yl)-4-(4-fluorophenyl)piperidin-4-ol], the IC50 was 1000 to 10000 nM against full length human TREX1 and over 100 µM in experiment [1].
As to `Cc1nn(C)cc1-c1ccnc(N2CCC(O)(c3ccc(F)c(F)c3)CC2)n1` [Example 51, 4-(3,4-difluorophenyl)-1-(4-(1,3-dimethyl-1H-pyrazol-4-yl)pyrimidin-2-yl)piperidin-4-ol], the IC50 against full length human TREX1 is 100 to 1000 nM; in experiment [1], over 100 µM.
For the molecule `Cc1nn(C)cc1-c1nnc(N2CCC(O)(c3ccc(F)c(F)c3)CC2)s1` [Example 95, 4-(3,4-difluorophenyl)-1-(5-(1,3-dimethyl-1H-pyrazol-4-yl)-1,3,4-thiadiazol-2-yl)piperidin-4-ol], the IC50 was 1000 to 10000 nM on full length human TREX1 and over 100 µM in experiment [1].
In the case of `OC1(c2ccc(F)cc2)CCN(c2cncc(-c3cccc(F)c3)n2)CC1` [Example 26, 4-(4-fluorophenyl)-1-(6-(3-fluorophenyl)pyrazin-2-yl)piperidin-4-ol], the IC50 on full length human TREX1 was 1000 to 10000 nM; in experiment [1], over 100 µM.
As to `CN(C)C(=O)c1cccc(-c2cncc(N3CCC(O)(c4ccc(F)cc4)CC3)n2)c1` [Example 20, 3-(6-(4-(4-fluorophenyl)-4-hydroxypiperidin-1-yl)pyrazin-2-yl)-N,N-dimethylbenzamide], the IC50 against full length human TREX1 was 1000 to 10000 nM; in experiment [1], over 100 µM.
As to `OC1(c2ccc(F)cc2)CCN(c2ccccn2)CC1` [Example 86, 4-(4-fluorophenyl)-1-(pyridin-2-yl)piperidin-4-ol], the values for the IC50 (against full length human TREX1; in experiment [1]) were over 10000 nM and over 100 µM, respectively.
On the same counts, the results for `COC(=O)c1cc(-c2cnn(C)c2)nc(N2CCC(O)(c3ccc(F)cc3)CC2)c1` [Example 38, methyl 2-(4-(4-fluorophenyl)-4-hydroxypiperidin-1-yl)-6-(1-methyl-1H-pyrazol-4-yl)isonicotinate] are 1000 to 10000 nM and over 100 µM.
On the same counts, the results for `Cc1ccc(-c2cncc(N3CCC(O)(c4ccc(F)cc4)CC3)n2)cc1` [Example 34, 4-(4-fluorophenyl)-1-(6-(p-tolyl)pyrazin-2-yl)piperidin-4-ol] are 1000 to 10000 nM and over 100 µM.
`OC1(c2ccc(F)cc2)CCN(c2cncc(-c3ccncc3)n2)CC1` [Example 35, 4-(4-fluorophenyl)-1-(6-(pyridin-4-yl)pyrazin-2-yl)piperidin-4-ol]: the 50% inhibitory concentration (IC50) against full length human TREX1 is 1000 to 10000 nM; in experiment [1], over 100 µM.
For `Cc1cnn(-c2cncc(N3CCC(O)(c4ccc(F)cc4)CC3)n2)c1` [Example 72, 4-(4-fluorophenyl)-1-(6-(4-methyl-1H-pyrazol-1-yl)pyrazin-2-yl)piperidin-4-ol], the IC50 was 1000 to 10000 nM against full length human TREX1 and over 100 µM in experiment [1].
On the same counts, the results for `Cc1nn(C)cc1-c1nc(N2CCC(O)(c3ccc(F)c(F)c3)CC2)sc1C(N)=O` [Example 98, 2-(4-(3,4-difluorophenyl)-4-hydroxypiperidin-1-yl)-4-(1,3-dimethyl-1H-pyrazol-4-yl)thiazole-5-carboxamide] are 100 to 1000 nM and over 100 µM.
Take `OC1(c2ccc(F)cc2)CCN(c2cncc(-c3cccnc3)n2)CC1` [Example 16, 4-(4-fluorophenyl)-1-(6-(pyridin-3-yl)pyrazin-2-yl)piperidin-4-ol]: the IC50 on full length human TREX1 was 1000 to 10000 nM; in experiment [1] it was over 100 µM.
Consider `Cn1cc(-c2cncc(N3CCC(O)(c4ccc(F)c(F)c4)CC3)n2)c(C(F)(F)F)n1` [Example 10, 4-(3,4-difluorophenyl)-1-(6-(1-methyl-3-(trifluoromethyl)-1H-pyrazol-4-yl)pyrazin-2-yl)piperidin-4-ol], for which the IC50 at full length human TREX1 is under 100 nM; in experiment [1], 10 to 100 µM.
With `O=C(NCc1ccccn1)c1cncc(N2CCC(O)(c3ccc(F)cc3)CC2)n1` [Example 66, 6-(4-(4-fluorophenyl)-4-hydroxypiperidin-1-yl)-N-(pyridin-2-ylmethyl)pyrazine-2-carboxamide], the results for the IC50 (on full length human TREX1; in experiment [1]) were over 10000 nM and over 100 µM, respectively.
Turning to `OC1(c2ccc(F)cc2)CCN(c2cncc(-c3cccc(C(F)(F)F)c3)n2)CC1` [Example 32, 4-(4-fluorophenyl)-1-(6-(3-(trifluoromethyl)phenyl)pyrazin-2-yl)piperidin-4-ol], the IC50 is over 10000 nM on full length human TREX1 and over 100 µM in experiment [1].
Turning to `Cc1nc(-c2cn(C)nc2Cc2ccccc2)cc(N2CCC(O)(c3ccc(F)c(F)c3)CC2)n1` [Example 101, 1-(6-(3-benzyl-1-methyl-1H-pyrazol-4-yl)-2-methylpyrimidin-4-yl)-4-(3,4-difluorophenyl)piperidin-4-ol], the figures for the IC50 (against full length human TREX1; in experiment [1]) were 100 to 1000 nM and over 100 µM, respectively.
